In brackets after ≈: the same amount, converted by molar mass. Activity calls are given as the source filed them. The rule behind the calls is not given here.
How the values were obtained:
[1] = tested on: Liver microsome; experiment: Metabolic stability in human liver microsomes assessed as cytochrome-mediated metabolism after 30 mins by HPLC-MS/MS analysis; assay type: ADME; settings: 0.5 h
[2] = tested on: Influenza A virus; assay type: functional, organism-based; settings: A/Puerto Rico/8/1934(H1N1), MDCK, 48 h
[3] = Cytotoxicity against human HEK293T cells assessed as decrease in cell viability by MTT assay; assay type: cell-based, HEK-293T
[4] = Cytotoxicity against MDCK cells assessed as decrease in cell viability by MTT assay; assay type: cell-based, Canis lupus familiaris; settings: dog
[5] = molecular target: PA/PB1 (Influenza A virus (A/Puerto Rico/8/1934(H1N1)), UniProt P03431+P03433)
[6] = tested on: Influenza A virus; assay type: functional, organism-based; settings: A/Puerto Rico/8/1934(H1N1), HEK-293T, 50 uM
[7] = Equilibrium solubility of the compound in phosphate buffer at pH 7.4 after 1 hr; assay type: physicochemical
[8] = Permeability of the compound assessed as passive diffusion from donor compartment to acceptor compartment after 18 hrs by PAMPA assay; assay type: physicochemical; settings: read-out: Peff
[9] = Permeability of the compound assessed as membrane drug retention after 18 hrs by PAMPA assay; assay type: physicochemical; parameters: concentration or dose not given beside the values
[10] = tested on: Influenza A virus; assay type: functional, organism-based; settings: A/Puerto Rico/8/1934(H1N1), MDCK, 48 h; remark: listed apart in the source
[11] = Antiviral activity against Influenza A virus A/Solomon Island/3/06 (H1N1) assessed as reduction in plaque formation after 48 hrs by plaque reduction assay; assay type: functional, Influenza A virus (A/Solomon Islands/3/2006(H1N1))
[12] = Antiviral activity against Influenza A virus A/Wisconsin/67/05 (H3N2) assessed as reduction in plaque formation after 48 hrs by plaque reduction assay; assay type: functional, Influenza A virus (A/Wisconsin/67/2005(H3N2))
[13] = tested on: Influenza B virus; experiment: Antiviral activity against Influenza B virus B/Lee/40 assessed as reduction in plaque formation after 48 hrs by plaque reduction assay; assay type: functional, organism-based; settings: B/Lee/1940, 48 h
[14] = tested on: Influenza B virus; experiment: Antiviral activity against Influenza B virus B/Malaysia/2506/04 assessed as reduction in plaque formation after 48 hrs by plaque reduction assay; assay type: functional; settings: B/Malaysia/2506/2004, 48 h
[15] = tested on: Influenza B virus; experiment: Antiviral activity against Influenza B virus B/Bangladesh/333/07 assessed as reduction in plaque formation after 48 hrs by plaque reduction assay; assay type: functional, organism-based; settings: B/Bangladesh/333/07, 48 h
[16] = tested on: Influenza A virus; assay type: functional, organism-based; settings: A/Puerto Rico/8/1934(H1N1), HEK-293T, 50 uM; remark: listed apart in the source
[17] = tested on: Influenza A virus; assay type: functional, organism-based; settings: A/Puerto Rico/8/1934(H1N1), HEK-293T, 50 uM; remark: listed apart in the source
[18] = tested on: Influenza A virus; assay type: functional, organism-based; settings: A/Puerto Rico/8/1934(H1N1), HEK-293T, 50 uM; remark: listed apart in the source

SMILES | Drug metabolism [1] | EC50 [2] [µM] | CC50 [3] [µM] | CC50 [4] [µM] | IC50 [5] [µM] | also measured
CCCOc1ccc(C(=O)Nc2nc3nc(-c4ccccc4)cc(C)n3n2)cc1 | metabolite_notdetected | > 100 | 52 | > 247 | 158 | –
COc1ccccc1C(=O)Nc1nc2n(n1)C(c1ccccc1)C=C(C)N2 (centres undefined) | metabolite_notdetected | > 100 | 240 | > 250 | > 200 | –
CC1=CC(c2ccccc2)n2nc(NC(=O)c3ccccc3)nc2N1 (centres undefined) | metabolite_notdetected | 100 | > 250 | > 250 | 100 | –
Cc1cc(-c2ccccc2)nc2nc(C(=O)Nc3ccccc3)nn12 | metabolite_notdetected | 40 | > 250 | > 250 | 128 | –
CC1=CC(c2ccccc2)n2nc(NC(=O)c3ccc4ccccc4c3)nc2N1 (centres undefined) | metabolite_notdetected | 41 | 154 | > 115 | > 200 | –
Cc1cc(-c2ccccc2)n2nc(C(=O)Nc3sc4c(c3C(N)=O)CCCCC4)nc2n1 | metabolite_notdetected | 21 | > 250 | > 250 | 1.1 | Activity [6]: inactive; solubility thermodynamic at 1 h [7]: 13 µg/mL (≈ 29.1 µM); Papp at 18 h [8]: 0.61 ×10⁻⁶ cm/s; Activity [9]: 45%; EC50 [10]: 21 µM; EC50 [11]: 23 µM; EC50 [12]: 7 µM; EC50 [13]: 24 µM; EC50 [14]: 17 µM; EC50 [15]: 11 µM; Activity [16]: Active; Activity [17]: Active; Activity [18]: Active
CC1=CC(c2ccccc2)n2nc(NC(=O)c3cccc(F)c3)nc2N1 (centres undefined) | metabolite_notdetected | > 100 | 220 | > 250 | 156 | –
COc1ccc(C(=O)Nc2nc3n(n2)C(c2ccccc2)C=C(C)N3)cc1 (centres undefined) | metabolite_notdetected | > 100 | > 250 | > 240 | 153 | solubility thermodynamic at 1 h [7]: 13 µg/mL (≈ 36 µM); Papp at 18 h [8]: 3.52 ×10⁻⁶ cm/s; Activity [9]: 57%
CCc1oc2ccccc2c1C(=O)c1cc(Br)c(O)c(Br)c1 [BENZBROMARONE] | – | 39 | – | – | – | –
Cc1cc(-c2ccccc2)n2nc(C(=O)Nc3ccccc3)nc2n1 | metabolite_notdetected | 42 | 110 | > 250 | 160 | –
CCCOc1ccc(C(=O)Nc2nc3n(n2)C(c2ccccc2)C=C(C)N3)cc1 (centres undefined) | metabolite_notdetected | 47 | > 250 | > 230 | 40 | solubility thermodynamic at 1 h [7]: 13 µg/mL (≈ 33.4 µM); Papp at 18 h [8]: 2.93 ×10⁻⁶ cm/s; Activity [9]: 41%; EC50 [10]: 47 µM; EC50 [11]: 27 µM; EC50 [12]: 37 µM; EC50 [13]: 51 µM; EC50 [14]: 32 µM; EC50 [15]: 27 µM
CC1=CC(c2ccccc2)n2nc(NC(=O)c3ccccc3F)nc2N1 (centres undefined) | metabolite_notdetected | > 100 | > 250 | > 250 | 185 | –
N#CC(c1ccc(Cl)cc1)c1c(Cl)cc(-n2ncc(=O)[nH]c2=O)cc1Cl (centres undefined) [DICLAZURIL] | – | 31 | – | – | – | –
NC(=O)c1ncn([C@@H]2O[C@H](CO)[C@@H](O)[C@H]2O)n1 [RIBAVIRIN] | – | – | > 250 | > 250 | – | –
Nc1ccc(O)c2c1C(=O)c1c(N)ccc(O)c1C2=O | – | 14.5 | > 250 | – | 20.3 | –
CCCCc1ccc(C(=O)Nc2nc3n(n2)C(c2ccccc2)C=C(C)N3)cc1 (centres undefined) | metabolite_notdetected | 100 | > 250 | > 250 | 48 | –
O=[N+]([O-])c1ccc(Oc2ccc(-n3cc(CO)nn3)cc2)c2nonc12 | – | 1 | 40 | – | 35 | –
CC1=CC(c2ccccc2)n2nc(NC(=O)c3ccc(-c4ccccc4)cc3)nc2N1 (centres undefined) | metabolite_notdetected | 28 | 155 | > 193 | > 200 | –
CC1=CC(c2ccccc2)n2nc(NC(=O)c3ccc(Cl)cc3)nc2N1 (centres undefined) | metabolite_notdetected | > 100 | > 250 | > 250 | 95 | –

SMILES | Drug metabolism [1] | EC50 [2] [µM] | CC50 [3] [µM] | CC50 [4] [µM] | IC50 [5] [µM] | also measured
CC1=CC(c2ccccc2)n2nc(NC(=O)c3ccc(OC(C)C)cc3)nc2N1 (centres undefined) | metabolite_notdetected | > 100 | > 250 | > 250 | 75 | –
Cc1cc(-c2ccccc2)n2nc(NC(=O)c3ccccc3)nc2n1 | metabolite_notdetected | > 100 | > 250 | > 250 | > 200 | –
COc1cccc(C(=O)Nc2nc3n(n2)C(c2ccccc2)C=C(C)N3)c1 (centres undefined) | metabolite_notdetected | > 100 | 230 | > 250 | 175 | –
CCCOc1ccc(C(=O)Nc2nc3nc(C)cc(-c4ccccc4)n3n2)cc1 | metabolite_notdetected | > 100 | 95 | > 72 | > 200 | –
Cc1cc(-c2ccccc2)nc2nc(NC(=O)c3ccccc3)nn12 | metabolite_notdetected | 25 | 196 | > 250 | 26 | solubility thermodynamic at 1 h [7]: 13 µg/mL (≈ 39.5 µM); Papp at 18 h [8]: 5.49 ×10⁻⁶ cm/s; Activity [9]: 2%; EC50 [10]: 25 µM; EC50 [11]: 27 µM; EC50 [12]: 24 µM; EC50 [13]: 25 µM; EC50 [14]: 36 µM; EC50 [15]: 34 µM
NC(=O)c1c(NC(=O)c2nc3nc(-c4ccccc4)cc(C(F)(F)F)n3n2)sc2c1CCCC2 | – | – | > 250 | – | 7.5 | –
CC1=CC(c2ccccc2)n2nc(NC(=O)c3ccc(F)cc3)nc2N1 (centres undefined) | metabolite_notdetected | > 100 | 190 | > 250 | 138 | –
NC(=O)c1c(NC(=O)c2cnn3c(C(F)F)cc(-c4ccccc4)nc23)sc2c1CCC2 | – | – | > 1000 | – | 25.4 | –
CC1=CC(c2ccccc2)n2nc(NC(=O)CCc3ccccc3)nc2N1 (centres undefined) | metabolite_notdetected | > 100 | 223 | > 250 | 100 | –
CCOc1ccc(C(=O)Nc2nc3n(n2)C(c2ccccc2)C=C(C)N3)cc1 (centres undefined) | metabolite_notdetected | 100 | 237 | > 250 | 139 | –
CSCC[C@H](N)C(=O)N[C@@H](CC(=O)O)C(=O)N[C@H](C(=O)N[C@@H](CC(N)=O)C(=O)N1CCC[C@H]1C(=O)N[C@H](C(=O)N[C@@H](CC(C)C)C(=O)N[C@@H](CC(C)C)C(=O)N[C@@H](Cc1ccccc1)C(=O)N[C@@H](CC(C)C)C(=O)N[C@@H](CCCCN)C(=O)N[C@H](C(=O)N1CCC[C@H]1C(=O)N[C@@H](C)C(=O)N[C@@H](CCC(N)=O)C(=O)O)C(C)C)[C@@H](C)O)C(C)C | – | – | > 100 | – | – | –
CC1=CC(c2ccccc2)n2nc(NC(=O)c3ccc(Oc4ccccc4)cc3)nc2N1 (centres undefined) | metabolite_notdetected | 59 | 73 | > 180 | 156 | –
COc1ccc(C(=O)Nc2nc3nc(-c4ccccc4)cc(C)n3n2)cc1 | metabolite_notdetected | > 100 | 109 | > 250 | 150 | –
Cc1cc(-c2ccccc2)nc2nc(C(=O)Nc3sc4c(c3C(N)=O)CCCCC4)nn12 | metabolite_notdetected | 49 | > 250 | > 250 | 28 | Activity [9]: 99%; EC50 [10]: 8 µM; EC50 [11]: 16 µM; EC50 [12]: 14 µM; EC50 [13]: 5 µM; EC50 [14]: 11 µM; EC50 [15]: 12 µM
CC1=CC(c2ccccc2)n2nc(NC(=O)c3ccc([N+](=O)[O-])cc3)nc2N1 (centres undefined) | metabolite_notdetected | > 100 | > 250 | > 250 | 75 | –
COC(=O)C1=C(N)N(c2cccc(Cl)c2C)C2=C(C(=O)CCC2)C1c1ccc2c(c1)OCO2 (centres undefined) | – | 12.2 | > 1000 | – | 30.4 | –
CCCCOc1ccc(C(=O)Nc2nc3n(n2)C(c2ccccc2)C=C(C)N3)cc1 (centres undefined) | metabolite_notdetected | 100 | > 250 | > 196 | 37 | –
COc1ccc(C(=O)Nc2nc3nc(C)cc(-c4ccccc4)n3n2)cc1 | metabolite_notdetected | 86 | 187 | > 250 | > 200 | –
